Where “and” joins values, the source holds several entries; their conditions need not be identical. Identical values can stand only once. Like-named read-outs stand apart in the source and are kept apart here. Blank lines part the entries; values can stand above or below the compound they belong to.
Columns and labels:
Type in all cases: binding
CBP bromodomain = target: T1, CBP bromodomain (Homo sapiens, UniProt Q92793); assay: Differential scanning fluorimetry (DSF) thermal shift; conditions: for ΔTm (°C) CBP: DSF
T1 construct: CBP (residues 1081-1197); 6xHis (cleaved yes); host or cells: E. coli BL21 (DE3) RIL
T1 sequence (Q92793 1081-1197): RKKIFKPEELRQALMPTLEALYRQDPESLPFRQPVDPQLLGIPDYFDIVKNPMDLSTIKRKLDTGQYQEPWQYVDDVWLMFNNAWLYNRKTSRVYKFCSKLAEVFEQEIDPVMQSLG
Description: After 18 h growth, the culture was harvested by centrifugation at 6000 × g for 25 min and stored at -80 °C. Harvested cell pellets were re-suspended in 50 mM Na/K phosphate buffer (pH 7.4) containing 100 mM NaCl, 40 mM imidazole, 0.01% w/v lysozyme and 0.01% v/v Triton X-100 at 4 °C for 1 h, subjected to sonication and the lysate was clarified by centrifugation (30,000 × g for 45 min at 4 °C). Proteins were purified by FPLC at 4 °C using columns and chromatography materials from GE Healthcare. […] Proteins were purified to homogeneity by size exclusion chromatography using Superdex 75 equilibrated with elution buffer (50 mM HEPES pH 7.5, 100 mM NaCl, 2 mM DTT). […] Pool fractions were combined, concentrated to 10–12 mg/ml, and aliquots were flash-frozen in liquid N2 and stored at −80 °C.
(§1) DSF experiments were performed with an Applied Biosystem StepOnePlus real-time PCR system (Thermo Fisher Scientific) using 96-well format plates, assayed in quadruplicate. For thermal shift determination, 5 μM protein was mixed with 100 μM compound in 50 mM HEPES, pH 7.5, 150 mM NaCl, 2 mM DTT, 2% DMSO, 5X SYPRO Orange (Thermo Fisher Scientific) in 20 μL reaction volumes.

[1] = target: GFP-tagged CBP bromodomain (Homo sapiens, UniProt Q92793); assay: Microscale thermophoresis (MST); conditions: for Kd: MST; for Response (Dose Response Curve): MST raw response
Sequence of GFP-tagged CBP bromodomain (Q92793 1085-1192 limits assumed): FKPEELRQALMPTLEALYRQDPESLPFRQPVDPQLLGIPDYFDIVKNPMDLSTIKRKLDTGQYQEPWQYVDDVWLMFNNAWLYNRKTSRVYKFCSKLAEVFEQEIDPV
Description: MST experiments were performed in a Monolith NT.115 Pico instrument (NanoTemper Technologies) following published procedures. […] MST traces were recorded using standard parameters: 5 s MST power off, 30 s MST power on and 5 s MST power off. Measurements were taken at -1-0 s (cold region) and 10 s (hot region) and data were analyzed using the NTAnalysis software.

BRD4-BD1 (BRD4-1) = target: T2, BRD4-BD1 (BRD4-1) (Homo sapiens, UniProt O60885); assay: Differential scanning fluorimetry (DSF) thermal shift; conditions: BRD4-BD1
T2 construct: BRD4-BD1 (residues 44-168); 6xHis (cleaved yes); host or cells: E. coli BL21 (DE3) RIL
Description: (§2) At OD600 of 0.6, the culture was cooled down to 18 °C and induced with 0.1 mM IPTG. After 18 h growth, the culture was harvested by centrifugation at 6000 × g for 25 min and stored at -80 °C. Harvested cell pellets were re-suspended in 50 mM Na/K phosphate buffer (pH 7.4) containing 100 mM NaCl, 40 mM imidazole, 0.01% w/v lysozyme and 0.01% v/v Triton X-100 at 4 °C for 1 h, subjected to sonication and the lysate was clarified by centrifugation (30,000 × g for 45 min at 4 °C). Proteins were purified by FPLC at 4 °C using columns and chromatography materials from GE Healthcare. […] Proteins were purified to homogeneity by size exclusion chromatography using Superdex 75 equilibrated with elution buffer (50 mM HEPES pH 7.5, 100 mM NaCl, 2 mM DTT). All BRDs eluted as monomeric protein and were of crystallization grade quality (>95% purity as judged by SDS-PAGE). Pool fractions were combined, concentrated to 10–12 mg/ml, and aliquots were flash-frozen in liquid N2 and stored at −80 °C.
as §1, with “volumes. Reaction mixtures were heated from 25 to 95 °C at 1 °C/min with fluorescence readings every 0.5 °C at 610 nm. The observed thermal shift (ΔTm) was recorded as the difference between the Tm of sample and DMSO reference wells.” for “volumes.”

EP300 bromodomain = target: T3, EP300 bromodomain (Homo sapiens, UniProt Q09472); assay: as above
T3 construct: 6xHis (cleaved yes); host or cells: E. coli BL21 (DE3) RIL
T3 sequence (Q09472 1048-1161): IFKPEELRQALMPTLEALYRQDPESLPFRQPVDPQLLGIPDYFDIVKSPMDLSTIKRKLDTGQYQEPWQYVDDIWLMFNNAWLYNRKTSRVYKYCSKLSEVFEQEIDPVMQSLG
Description: as §2
as §1, with “volumes. Reaction mixtures were heated from 25 to 95 °C at 1 °C/min with fluorescence readings every 0.5 °C at 610 nm. The observed thermal shift (ΔTm) was recorded as the difference between the Tm of sample and DMSO reference wells.” for “volumes.”

- ΔTm (°C) CBP (CBP bromodomain; Figure 3A, CBP bromodomain): 15.3 °C
- ΔTm (°C) CBP (CBP bromodomain; Figure 3B, CBP): 15.3 °C
- DSF ΔTm (°C) (CBP bromodomain; Figure 3C, DSF (values equal CBP column)): 15.3 °C
- Kd ([1]; Figure 3C, read-out: MST Kd): 30 nM
- Response (Dose Response Curve) ([1]; Dose 1.52588e-10, single replicate run): 893.145 and 893.496 and 892.759
- Response (Dose Response Curve) ([1]; Dose 3.05176e-10, single replicate run): 891.612 and 893.465 and 892.592
- Response (Dose Response Curve) ([1]; Dose 6.10352e-10, single replicate run): 892.684 and 894.151 and 892.213
- Response (Dose Response Curve) ([1]; Dose 1.2207e-9, single replicate run): 892.641 and 893.04 and 893.233
- Response (Dose Response Curve) ([1]; Dose 2.44141e-9, single replicate run): 892.502 and 892.231 and 892.986
- Response (Dose Response Curve) ([1]; Dose 4.88281e-9, single replicate run): 891.878 and 891.94 and 891.268
- Response (Dose Response Curve) ([1]; Dose 9.76563e-9, single replicate run): 891.027 and 892.27 and 891.532
- Response (Dose Response Curve) ([1]; Dose 1.95313e-8, single replicate run): 892.42 and 891.618 and 892.241
- Response (Dose Response Curve) ([1]; Dose 3.90625e-8, single replicate run): 890.537 and 890.96 and 891.609
- Response (Dose Response Curve) ([1]; Dose 7.8125e-8, single replicate run): 889.07 and 889.984 and 889.085
- Response (Dose Response Curve) ([1]; Dose 1.5625e-7, single replicate run): 888.52 and 887.496 and 888.851
- Response (Dose Response Curve) ([1]; Dose 3.125e-7, single replicate run): 887.2 and 888.101 and 888.455
- Response (Dose Response Curve) ([1]; Dose 6.25e-7, single replicate run): 887.415 and 887.704 and 886.214
- Response (Dose Response Curve) ([1]; Dose 1.25e-6, single replicate run): 888.032 and 886.878 and 886.638
- Response (Dose Response Curve) ([1]; Dose 2.5e-6, single replicate run): 887.475 and 888.923 and 888.41
- Response (Dose Response Curve) ([1]; Dose 5e-6, single replicate run): 888.712 and 888.775 and 886.626
- Kd ([1]; single replicate run, target clGFP-CBPBRD, TargetConcentration 5e-8, MST-Power Medium, unit inferred, read-out: Kd (Fit Results, Fit Model: Kd)): 20 nM and 15.2 nM and 54.7 nM
- Bound (Fit Results) ([1]; fitted MST response of bound state, single replicate run, target clGFP-CBPBRD 5e-8): 887.696 and 887.896 and 886.89
- Unbound (Fit Results) ([1]; fitted MST response of unbound state, single replicate run, target clGFP-CBPBRD 5e-8): 892.536 and 893.196 and 892.626
- ΔTm (°C) BRD4-BD1 (BRD4-BD1 (BRD4-1); Figure 3A, DSF): 3.2 °C
- ΔTm (°C) EP300 (EP300 bromodomain; Figure 3B, DSF, EP300): 14.3 °C
Compound: COC1CCC(n2c(C3CCCC(=O)N3c3cccc(C(C)(C)C)c3)nc3cc(-c4c(C)noc4C)ccc32)CC1 (stereo not drawn) [iCBP-6]

- ΔTm (°C) (BRD4-BD1 (BRD4-1); DSF thermal shift vs DMSO, Fig 2B): 0 °C
- ΔTm (°C) (EP300 bromodomain; DSF thermal shift vs DMSO, EP300 bromodomain, Fig 2B): 7.9 °C
Compound: COc1ccc(CCc2nc3cc(-c4c(C)noc4C)ccc3n2C[C@H](C)N2CCOCC2)cc1Cl [SGC-CBP30]

— publication PMC11045757, “Group 3 medulloblastoma transcriptional networks collapse under domain specific EP300/CBP inhibition” (Nature Communications, 2024)
